We go through five compounds from patent publication US7902226B2, “Dehalogeno-compounds” (Daiichi Pharmaceutical Co., Ltd., priority 2000, dated 2011).

Data set [1] relates to Ps. maltophilia, IID-1275. In words: Antibacterial activity (MIC), standard method of the Japan Society of Chemotherapy. It is filed as cell-based. The following applies: Stenotrophomonas maltophilia, IID1275. On the procedure:
(§1) Antibacterial activities of the compounds of this invention were measured in accordance to the standard method designated by the Japan Society of Chemotherapy, with the results shown as MIC values (microgram/ml) units in the following table. For comparison with the MIC values of the compounds of this invention, MIC values of levofloxacin (LVFX), ciprofloxacin (CPFX) and 7-[3-(R)-(1-aminocyclopropyl)pyrrolidin-1-yl]-6-fluoro-1-[2-(S)-fluoro-1-(R)-cyclopropyl]-8-methyl-1,4-dihydro-4-oxoquinoline-3-carboxylic acid (Reference drug 1), which is described in PCT/JP96/00208, are also shown in the table.

The test system of a further data set is E. coli, NIHJ. Described as above. It is filed as cell-based. The conditions noted are these: Escherichia coli. On the procedure: as §1
A further data set has as its system Pr. vulgalis, 08601. The description is as above. It is filed as cell-based. On the procedure: as §1
The next data set deals with K. pneumoniae, Type 1. The description is as above. It is filed as cell-based. The following applies: Klebsiella pneumoniae, TYPE1. The procedure: as §1
The subject of a further data set is Str. pyogenes, G-36. Described as above. The conditions noted are these: Streptococcus pyogenes, G36. It is filed as cell-based. On the procedure: as §1
Data set [2] concerns Str. faecalis, ATCC 19433. The data set is described as above. It is filed as cell-based. The following applies: Enterococcus faecalis, ATCC19433. On the procedure: as §1
A further data set deals with S. aureus, 209P. The description is as above. It is filed as cell-based. The conditions noted are these: Staphylococcus aureus. The procedure:
as §1

Another data set relates to Ps. aeruginosa, 32121. The description is as above. It is filed as cell-based. The conditions noted are these: Pseudomonas aeruginosa. On the procedure: as §1
In another data set the test system is S. epidermidis, 56500. The data set is described as above. It is filed as cell-based. The following applies: Staphylococcus epidermidis. The procedure: as §1
The subject of the next data set is Ps. aeruginosa, 32104. The data set is described as above. The conditions noted are these: Pseudomonas aeruginosa. It is filed as cell-based. The procedure:
as §1

Another data set deals with Str. pneumoniae J24. Described as above. It is filed as cell-based. The conditions noted are these: Streptococcus pneumoniae. On the procedure: as §1
A further data set concerns S. flexneri, 2A 5503. Described as above. The conditions noted are these: Shigella flexneri, 2A5503. It is filed as cell-based. The procedure:
as §1

The subject of another data set is S. aureus, 870307. Described as above. The following applies: Staphylococcus aureus. It is filed as cell-based. The procedure:
as §1

Another data set deals with Ser. marcescens, 10100. The data set is described as above. It is filed as cell-based. The conditions noted are these: Serratia marcescens. On the procedure: as §1

Values after ≈ are worked out from the molar mass of the structure shown.

In turn, `CNC1([C@@H]2CCN(c3ccc4c(=O)c(C(=O)O)cn([C@@H]5C[C@@H]5F)c4c3C)C2)CC1` [Example 10, 1-[2-(S)-fluoro-1-(R)-cyclopropyl]-8-methyl-7-[3-(R)-[1-(methylamino)cyclopropyl]pyrrolidin-1-yl]-1,4-dihydro-4-oxoquinoline-3-carboxylic acid] came in with a melting point of 223 to 224 °C. For the same compound, inhibition of growth in data set [1] (MIC) required 0.1 mg/L (≈ 0.25 µM). The minimal inhibitory concentration (MIC) in the data set with E. coli, NIHJ was at most 0.003 mg/L. In addition, the MIC with Pr. vulgalis, 08601 came out at 0.006 mg/L (≈ 0.015 µM). The minimal inhibitory concentration (MIC) in the data set with K. pneumoniae, Type 1 is 0.025 mg/L (≈ 0.0626 µM). The MIC against Str. pyogenes, G-36 is at most 0.003 mg/L. In addition, the MIC in data set [2] was 0.012 mg/L (≈ 0.03 µM). The minimal inhibitory concentration (MIC) against S. aureus, 209P is at most 0.003 mg/L. This compound also registered a minimal inhibitory concentration (MIC) against Ps. aeruginosa, 32121 of 0.025 mg/L (≈ 0.0626 µM). Further, the MIC in the data set with S. epidermidis, 56500 is 0.006 mg/L (≈ 0.015 µM). For the same compound, in the data set on Ps. aeruginosa, 32104, inhibition of growth (MIC) required 0.1 mg/L (≈ 0.25 µM). Also, in the data set on Str. pneumoniae J24, the MIC was at most 0.003 mg/L. Moreover, the lowest concentration to inhibit growth with S. flexneri, 2A 5503 (MIC) was 0.006 mg/L (≈ 0.015 µM). Moreover, the minimum inhibitory concentration (MIC) with S. aureus, 870307 is 0.025 mg/L (≈ 0.0626 µM). The compound also registered an MIC with Ser. marcescens, 10100 of 0.05 mg/L (≈ 0.125 µM).
The compound `CNC1([C@@H]2CCN(c3ccc4c(=O)c(C(=O)O)cn(C5CC5)c4c3C)C2)CC1` [Example 15, 1-(cyclopropyl)-8-methyl-7-[3-(R)-[1-(methylamino)cyclopropyl]pyrrolidin-1-yl]-1,4-dihydro-4-oxoquinoline-3-carboxylic acid] came in with a melting point of 190 to 192 °C. This compound also yielded a minimal inhibitory concentration (MIC) in [1] of 0.2 mg/L (≈ 0.524 µM). In the data set with E. coli, NIHJ, this compound had an MIC of at most 0.003 mg/L. In the data set with Pr. vulgalis, 08601, this compound showed an MIC of 0.012 mg/L (≈ 0.0315 µM). Besides, the MIC with K. pneumoniae, Type 1 was 0.025 mg/L (≈ 0.0655 µM). The MIC with Str. pyogenes, G-36 was at most 0.003 mg/L. In data set [2], this compound yielded a minimum inhibitory concentration (MIC) of 0.025 mg/L (≈ 0.0655 µM). For the same compound, in the data set on S. aureus, 209P, the MIC was at most 0.003 mg/L. Besides, 0.05 mg/L (≈ 0.131 µM) was the least that counted as inhibitory with Ps. aeruginosa, 32121 (MIC). This compound had an MIC in the data set with S. epidermidis, 56500 of 0.006 mg/L (≈ 0.0157 µM). Moreover, the MIC in the data set on Ps. aeruginosa, 32104 turned out to be 0.1 mg/L (≈ 0.262 µM). This compound also showed an MIC in the data set with Str. pneumoniae J24 of at most 0.003 mg/L. Further, in the data set with S. flexneri, 2A 5503, the MIC was 0.006 mg/L (≈ 0.0157 µM). In the data set with S. aureus, 870307, the MIC was determined as 0.025 mg/L (≈ 0.0655 µM). Further, the minimal inhibitory concentration (MIC) in the data set on Ser. marcescens, 10100 amounted to 0.1 mg/L (≈ 0.262 µM).
In the case of `CCNC1([C@@H]2CCN(c3ccc4c(=O)c(C(=O)O)cn([C@@H]5C[C@@H]5F)c4c3C)C2)CC1` [Example 14, 7-[3-(R)-[1-(ethylamino)cyclopropyl]pyrrolidin-1-yl]-1-[2-(S)-fluoro-1-(R)-cyclopropyl]-8-methyl-1,4-dihydro-4-oxoquinoline-3-carboxylic acid], the melting point is 191 to 194 °C. In data set [1], this compound showed a minimal inhibitory concentration (MIC) of 0.2 mg/L (≈ 0.484 µM). This compound also came in with an MIC against E. coli, NIHJ of at most 0.003 mg/L. The compound also displayed an MIC against Pr. vulgalis, 08601 of 0.012 mg/L (≈ 0.029 µM). In the data set on K. pneumoniae, Type 1, this compound came in with an MIC of 0.05 mg/L (≈ 0.121 µM). Moreover, the MIC in the data set on Str. pyogenes, G-36 was at most 0.003 mg/L. In data set [2], this compound yielded a minimal inhibitory concentration (MIC) of 0.025 mg/L (≈ 0.0605 µM). This compound also returned an MIC with S. aureus, 209P of at most 0.003 mg/L. In addition, inhibition of growth against Ps. aeruginosa, 32121 (MIC) required 0.05 mg/L (≈ 0.121 µM). Moreover, it took 0.006 mg/L (≈ 0.0145 µM) to inhibit growth against S. epidermidis, 56500 (MIC). Besides, the MIC against Ps. aeruginosa, 32104 came to 0.1 mg/L (≈ 0.242 µM). In the data set with Str. pneumoniae J24, this compound displayed an MIC of at most 0.003 mg/L. Moreover, in the data set on S. flexneri, 2A 5503, 0.006 mg/L (≈ 0.0145 µM) was the least that counted as inhibitory (MIC). The compound further registered an MIC with S. aureus, 870307 of 0.012 mg/L (≈ 0.029 µM). This compound also gave an MIC in the data set on Ser. marcescens, 10100 of 0.1 mg/L (≈ 0.242 µM).
The compound `CNC1([C@@H]2CCN(c3ccc4c(=O)c(C(=O)O)cn([C@@H]5C[C@@H]5F)c4c3OC)C2)CC1` [Example 11, 1-[2-(S)-fluoro-1-(R)-cyclopropyl]-8-methoxy-7-[3-(R)-[1-(methylamino)cyclopropyl]pyrrolidin-1-yl]-1,4-dihydro-4-oxoquinoline-3-carboxylic acid] registered a melting point of 213 to 215 °C. Inhibition of growth in data set [1] (MIC) required 0.2 mg/L (≈ 0.481 µM). The MIC in the data set with E. coli, NIHJ turned out to be 0.006 mg/L (≈ 0.0144 µM). The compound further gave an MIC against Pr. vulgalis, 08601 of 0.012 mg/L (≈ 0.0289 µM). This compound also showed a minimal inhibitory concentration (MIC) with K. pneumoniae, Type 1 of 0.1 mg/L (≈ 0.241 µM). This compound also returned an MIC with Str. pyogenes, G-36 of 0.012 mg/L (≈ 0.0289 µM). Besides, the MIC in data set [2] amounted to 0.05 mg/L (≈ 0.12 µM). In the data set on S. aureus, 209P, this compound came in with a minimum inhibitory concentration (MIC) of at most 0.003 mg/L. Further, the MIC in the data set with Ps. aeruginosa, 32121 was 0.1 mg/L (≈ 0.241 µM). This compound also displayed a minimum inhibitory concentration (MIC) in the data set with S. epidermidis, 56500 of 0.012 mg/L (≈ 0.0289 µM). In addition, it took 0.2 mg/L (≈ 0.481 µM) to inhibit growth in the data set with Ps. aeruginosa, 32104 (MIC). In addition, the MIC against Str. pneumoniae J24 came to 0.006 mg/L (≈ 0.0144 µM). Further, the MIC against S. flexneri, 2A 5503 is 0.012 mg/L (≈ 0.0289 µM). In addition, the lowest concentration to inhibit growth against S. aureus, 870307 (MIC) was 0.05 mg/L (≈ 0.12 µM). The same compound registered a minimal inhibitory concentration (MIC) against Ser. marcescens, 10100 of 0.2 mg/L (≈ 0.481 µM).
In turn, `Cc1c(N2CC[C@@H](C3(N)CC3)C2)ccc2c(=O)c(C(=O)O)cn(C3CC3)c12` [Example 3, 7-[3-(R)-(1-aminocyclopropyl)pyrrolidin-1-yl]-1-cyclopropyl-1,4-dihydro-8-methyl-4-oxoquinoline-3-carboxylic acid] registered a melting point of 230 to 233 °C. Also, the minimum inhibitory concentration (MIC) in [1] was determined as 0.05 mg/L (≈ 0.136 µM). The compound also returned a minimum inhibitory concentration (MIC) against E. coli, NIHJ of at most 0.003 mg/L. Moreover, the minimal inhibitory concentration (MIC) with Pr. vulgalis, 08601 is at most 0.003 mg/L. In the data set with K. pneumoniae, Type 1, this compound had a minimal inhibitory concentration (MIC) of 0.012 mg/L (≈ 0.0327 µM). Besides, in the data set on Str. pyogenes, G-36, the MIC amounted to 0.003 mg/L (≈ 0.00816 µM). The same compound came in with an MIC in data set [2] of 0.012 mg/L (≈ 0.0327 µM). Moreover, the MIC against S. aureus, 209P was at most 0.003 mg/L. In the data set on Ps. aeruginosa, 32121, this compound yielded an MIC of 0.025 mg/L (≈ 0.068 µM). For the same compound, the MIC in the data set on S. epidermidis, 56500 was determined as 0.003 mg/L (≈ 0.00816 µM). In the data set on Ps. aeruginosa, 32104, this compound came in with a minimum inhibitory concentration (MIC) of 0.05 mg/L (≈ 0.136 µM). Besides, in the data set on Str. pneumoniae J24, the MIC is at most 0.003 mg/L. Further, in the data set with S. flexneri, 2A 5503, the minimal inhibitory concentration (MIC) was at most 0.003 mg/L. Moreover, the minimal inhibitory concentration (MIC) against S. aureus, 870307 is 0.025 mg/L (≈ 0.068 µM). In the data set with Ser. marcescens, 10100, the minimum inhibitory concentration (MIC) stood at 0.025 mg/L (≈ 0.068 µM).

One may read the melting point as the temperature, or range, at which the solid turns liquid. The term MIC denotes the lowest concentration that inhibits growth of the organism. A low value points to a more susceptible organism.
